Values after ≈ are worked out from the molar mass of the structure shown. Where a name gives a salt, the structure may show the parent alone.
Key:
Solution stability = assay type: physicochemical; settings: pH6, room temperature, kept in dark
[1] = MTD/toxicity study in rats; assay type: in vivo; settings: 50-80 mg/kg i/v, QDx5/2/5 schedule
Description: A similar scheme can also be employed in experimental rats and other animals. For example, to determine MTD in rats, 50-80 mg/kg of A37 was dosed i/v in a QDx5/2/5 schedule.

Aqueous solubility = assay type: physicochemical; settings: water (aqueous solution)
[2] = tested on: Rb phosphorylation at Serine-780; assay: Rb phosphorylation; assay type: cell-based
Casein Kinase 1 (yeast) = target: T1, Casein Kinase 1 (yeast) (Schizosaccharomyces pombe, UniProt P40233); assay: CK1-Yeast kinase assay (A37 assay); assay type: biochemical, S. pombe
T1 construct: purchased Upstate 14-112
Description: • 1. Assay Dilution Buffer I (ADBI, Catalog #20-108): 20 mM MOPS, pH 7.2, 25 mM β-glycerol • phosphate, 5 mM EGTA, 1 mM sodium orthovanadate, 1 mM dithiothreitol. • 2. Casein Kinase 1, active: Dilute to 10-50 ng/μl. Use 10 μl (100-500 ng) per assay point. • 3. Casein Kinase 1 Substrate Peptide (Catalog #12-423): Prepare a 1 mM sock in ADBI. Use 10 μl per assay for a final concentration of 250 μM per assay point. • 4. [γ-^32P]ATP: Stock 1 mCi/100 μl (3000 Ci/mmol, obtained from Perkin Elmer, Cat. # BLU002A). Make 10 μl aliquots (100 μCi/vial). Before starting the assay, dilute an aliquot with 90 μl of 500 μM cold ATP and 75 mM magnesium chloride in ADBI.
• 1. Add 10 μl of ADBI to a microcentrifuge tube. • 2. Add 10 μl of Casein Kinase 1, active (100-500 ng). • 3. Add 10 μl (250 μM) Casein Kinase 1 Substrate Peptide. • 4. Add 10 μl of diluted [γ-^32P]ATP mixture. • 5. Incubate for 10 minutes at in a shaking incubator at 30° C. • 6. Transfer 25 μl onto the center of a 2 cm×2 cm P81 paper. • 7. Wash the assay squares three times with 0.75% phosphoric acid. • 8. Wash the assay squares once with acetone. • 9. Transfer the assay squares to a scintillation vial and add 5 ml scintillation cocktail. • 10. Read in scintillation counter. Compare cpm of enzyme samples to cpm of control samples that contain no enzyme (background control).

HT29/mit = assay: SRB cytotoxicity, mitoxanthrone resistant cells; assay type: cell-based, human
Description: (§1) In these experiments, the P-glycoprotein expressing NCI-Adr resistant subline (Vickers et al., 1989. Mol Endocrinology 3 (1):157-164) was used. […] Briefly, cells were plated in 96 well dishes 24 hours prior to compound addition. Where noted, they were exposed to verapamil for 4 hours prior to compound addition and then throughout the treatment period (72 hours). The assay was terminated with the addition of cold TCA to a final concentration of 10% and the plates were incubated for one hour at 4° C. The plates were then washed 5 times with water and 100 μl of a Sulforhodamine B solution (4%) was added to each well. The plate was then incubated for 10 minutes at room temperature before removal of unbound dye by washing with 1% acetic acid. The bound dye was solubilized with 10 mM Trizma base and the absorbance read at OD570.
(§2) The parental non-mutated cell line HT29 was used as a control.
(§3) Z. Cytotoxicity was measured using the SRB assay according to Shekan et al. as described above in Example 1A.

HT29 = assay: SRB cytotoxicity, HT29 parental cells; assay type: cell-based; settings: Homo sapiens, HT-29, 72 h
Description: as §1, with “acid.” for “acid. The bound dye was solubilized with 10 mM Trizma base and the absorbance read at OD570.”
as §2, §3

normal cells = assay: Activity on normal cells; assay type: cell-based
quiescent tumor cells = assay: Activity on quiescent tumor cells; assay type: cell-based

T1 sequence (P40233 1-298 limits assumed): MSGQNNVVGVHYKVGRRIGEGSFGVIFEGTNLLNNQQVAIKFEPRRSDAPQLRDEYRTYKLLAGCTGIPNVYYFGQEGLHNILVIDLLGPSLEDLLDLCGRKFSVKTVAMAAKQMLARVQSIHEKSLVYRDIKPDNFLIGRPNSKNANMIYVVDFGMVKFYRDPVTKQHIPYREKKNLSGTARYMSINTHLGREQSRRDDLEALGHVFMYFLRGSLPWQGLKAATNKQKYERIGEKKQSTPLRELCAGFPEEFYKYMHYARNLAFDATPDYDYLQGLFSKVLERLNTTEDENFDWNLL

| Compound | Solution stability (Solution stability) | cardiotoxicity [1] | solubility (Aqueous solubility) | Rb phosphorylation at Serine-780 [2] | IC50 (Casein Kinase 1 (yeast); CK1 IC50 (A37), kinase panel, 10 μM ATP) | IC50 (Casein Kinase 1 (yeast); CSNK1A1 (CK1) Inhibition (IC50), A37, S. pombe CK1 (*)) | RR (relative resistance) HT29/mit vs HT29 (HT29/mit) | IC50 (HT29/mit; Homo sapiens, HT-29, 72 h, SRB) | IC50 (HT29) | IC50 (normal cells) | IC50 (quiescent tumor cells) |
| --- | --- | --- | --- | --- | --- | --- | --- | --- | --- | --- | --- |
| CC(C)N1CCN(C(=O)COc2ccc(-c3n[nH]c4c3C(=O)c3c(NC(=O)NN5CCOCC5)cccc3-4)cc2)CC1 [Compound A37] | > 1 mo. | did not induce cardiotoxicity | 15 to 20 mg/mL (≈ 26.1 to 34.9 mM) | inhibits Rb phosphorylation at Serine-780 | < 0.003 µM | < 0.005 µM | – | – | – | – | – |
| COCCN1CCN(Cc2ccc(-c3n[nH]c4c3C(=O)c3c(NC(=O)NN5CCOCC5)cccc3-4)cc2)CC1 [Compound B16, N-[3-(4-{[4-(2-methoxyethyl)piperazinyl]methyl}phenyl)-4-oxoindeno[2,3-d]pyrazol-5-yl](morpholin-4-ylamino)carboxamide dihydrochloride] | – | – | – | – | – | – | 22.1 | 1.7 µM | 0.077 µM | 10.9 µM | 0.011 µM |
